{"source": "patent US20220000852A1", "about": "“5-HT2A SEROTONIN RECEPTOR INVERSE AGONISTS OR ANTAGONISTS FOR USE IN REDUCING AMYLOID-BETA PEPTIDES AND ACCUMULATION OF AMYLOID PLAQUES” (ACADIA Pharmaceuticals Inc., priority 2016, published 2022)", "key": {"[1]": {"test_system": "beta amyloid", "settings": "cited from earlier work; for beta amyloid levels and Plaque Burden: Mouse Model of AD"}, "[2]": {"test_system": "ISF Aβ", "test": "ISF Aβ levels by hippocampal microdialysis and sandwich ELISA in APP/PS1+/− transgenic mice", "format": "in vivo", "settings": "for ISF levels of Aβ: Example 1", "experimental": "Wild-type or APP/PS1+/− transgenic mice at the indicated ages (equal male and female) were implanted with unilateral hippocampal microdialysis probes at stereotaxic coordinates (bregma—3.1 mm, 2.5m lateral to midline, and 1.2 mm below dura at a 12° angle) as described (Cirrito et al. 2003; 2011). These probes contain a 38 kDa MWCO semi-permeable membrane and sample Aβ specifically from within the brain ISF. ISF Aβ was measured every 60-90 minutes for up to 72 hours after probe was inserted into the brain. Throughout each study mice was housed in RaTurn caging systems to provide freedom of movement and ad lib food and water while attached the microdialysis equipment. After probe insertion, animals were allowed to recover for 6 hours in order for the brain to recover and the blood-brain barrier to reform. Microdialysis probe insertion was similar to the procedure described by Cirrito et al. 2003 and 2011. From hours 6-60 after microdialysis probe insertion, ISF Aβ levels were relatively constant which provides the ideal experimental window. After recovery, each mouse had baseline ISF Aβ levels sampled every hour over a 6 hour period followed by administration of either vehicle (saline, pH 6.0 or M DL 100,907. Following drug administration, ISF Aβ was measured every 60-90 minutes for an additional 48 hours. At the end of each experiment ISF Aβ40 was immediately measured by sandwich ELISA. Animals were sacrificed, brains removed, then processed for histological verification of probe placement. FIG. 1A-FIG. 1D discloses the results of Example 1 (MDL 100,907 (M100), a selective 5-HT2A Serotonin Receptor Inverse Agonist on ISF levels of Aβ40 and Aβ42 in wild-type, and in young and aged APP/PS1+/− Transgenic Mice). […] APP/PS1+/− transgenic mice at the indicated ages (equal male and female) were implanted with unilateral hippocampal microdialysis probes at stereotaxic coordinates (bregma—3.1 mm, 2.5m lateral to midline, and 1.2 mm below dura at a 12° angle) as described (Cirrito et al. 2003 and 2011) and ISF Aβ levels measured as described in Example 1. […]"}, "[3]": {"test_system": "ISF Aβ", "test": "ISF Aβ levels by hippocampal microdialysis in wild-type mice", "format": "in vivo", "settings": "2.5 to 3 months, Example 3, pimavanserin 1 mg/kg, MDL 100,907 3 mg/kg", "experimental": "Wild-type or APP/PS1+/− transgenic mice at the indicated ages (equal male and female) were implanted with unilateral hippocampal microdialysis probes at stereotaxic coordinates (bregma—3.1 mm, 2.5m lateral to midline, and 1.2 mm below dura at a 12° angle) as described (Cirrito et al. 2003; 2011). These probes contain a 38 kDa MWCO semi-permeable membrane and sample Aβ specifically from within the brain ISF. ISF Aβ was measured every 60-90 minutes for up to 72 hours after probe was inserted into the brain. Throughout each study mice was housed in RaTurn caging systems to provide freedom of movement and ad lib food and water while attached the microdialysis equipment. […] After recovery, each mouse had baseline ISF Aβ levels sampled every hour over a 6 hour period followed by administration of either vehicle (saline, pH 6.0 or M DL 100,907. Following drug administration, ISF Aβ was measured every 60-90 minutes for an additional 48 hours. At the end of each experiment ISF Aβ40 was immediately measured by sandwich ELISA. Animals were sacrificed, brains removed, then processed for histological verification of probe placement. FIG. 1A-FIG. 1D discloses the results of Example 1 (MDL 100,907 (M100), a selective 5-HT2A Serotonin Receptor Inverse Agonist on ISF levels of Aβ40 and Aβ42 in wild-type, and in young and aged APP/PS1+/− Transgenic Mice). […]"}, "[4]": {"test_system": "ISF Aβ", "test": "ISF Aβ levels by hippocampal microdialysis in 5-HT2A−/− mice", "format": "in vivo", "settings": "5-HT2A KO (5-HT2A−/−) mice; Example 3; pimavanserin 1 mg/kg, MDL 100,907 3 mg/kg", "experimental": "Following drug administration, ISF Aβ was measured every 3 hours for an additional 24 hours."}, "[5]": {"test_system": "Aβ40 and Aβ42", "test": "Aβ40 and Aβ42 in 5M guanidine hippocampal extracts (ELISA) after chronic treatment of APP/PS1+/− mice", "format": "in vivo", "from_the_text": "(§1) Incisions were closed by suture or staple to insure the pumps remained in place. Every 5 weeks pumps were removed and new full pumps implanted in the same manner at a different location on the back to provide continuous drug delivery over the 4 month period. In parallel, age and gender matched cohorts of APP/PS1+/− transgenic mice were sacrificed so that amyloid plaque and Aβ levels at the start of treatment could be compared to mice at the end of treatment. […] At the end of the 4 month treatment period, mice were sacrificed, brains removed, and divided into hemispheres. One hemisphere per mouse was processed for guanidine extraction and biochemical analysis by ELISA of Aβ40 and Aβ42 levels in hippocampus as described in Cirrito et al., 2011, with the 5 Molar Guanidine extracts representing the insoluble fractions of Aβ40 and Aβ42. The insoluble fraction is believed to represent the harmful amyloid plaque deposits that are characteristic of Alzheimer's disease. The other hemisphere was used to perform histological staining and analysis of amyloid plaque growth. Start indicates the age and gender matched cohorts sacrificed at the start of the study. Guan indicates 5 Molar Gaunidine. FIG. 4A) 5M Gaunidine fraction of Aβ40 and Aβ42, all genders. FIG. 4B) 5M Guanidine fraction, male and female.\nMale and Female APP/PS1+/− transgenic mice, age 6 months, were implanted with Alzet osmotic minipumps and treated as described in Example 4. At the end of the 4 month treatment period, mice were sacrificed, brains removed, and divided into hemispheres. In parallel, age and gender matched cohorts of APP/PS1+/− transgenic mice were sacrificed so that amyloid plaque and Aβ levels at the start of treatment could be compared to mice at the end of treatment. Start indicates the age and gender matched cohorts sacrificed at the start of the study. Guan indicates 5 Molar Gaunidine. FIG. 6A) 5M Gaunidine fraction of Aβ40 and Aβ42, all genders. FIG. 6B) F) 5M Guanidine fraction of Aβ40 and Aβ42, male and female. […] Example 7."}, "[6]": {"test_system": "amyloid plaque", "test": "Histological staining of hippocampus for amyloid plaque load after chronic treatment of APP/PS1+/− mice", "format": "in vivo", "from_the_text": "as §1, with “female. […]” for “female.”"}, "[7]": {"test_system": "Aβ40 and Aβ42", "test": "Aβ40 and Aβ42 in CSF (ELISA) after chronic treatment of APP/PS1+/− mice", "format": "in vivo", "settings": "6 month old APP/PS1 mice treated for 4 months; Example 8", "from_the_text": "as §1, with “The other hemisphere was used to perform histological staining and analysis of amyloid plaque growth. Start indicates the age and gender matched cohorts sacrificed at the start of the study. Guan indicates 5 Molar Gaunidine. FIG. 4A) 5M Gaunidine fraction of Aβ40 and Aβ42, all genders. FIG. 4B) 5M Guanidine fraction, male and female.” left out\nMale and Female APP/PS1+/− transgenic mice, age 6 months, were implanted with Alzet osmotic minipumps and treated as described in Example 4. At the end of the 4 month treatment period, mice were sacrificed, CSF removed using the method of DeMattos et al., 2002 (see page 230, Materials and Methods), and Aβ40 and Aβ42 levels analyzed by ELISA. […]"}}}
{"smiles": "NCCc1c[nH]c2ccc(O)cc12", "note": "[serotonin]", "values": [{"measurement": "ISF Aβ40 and Aβ42 levels", "setting": "[1]; direct infusion into the hippocampus", "result": "reduced ISF Aβ40 and Aβ42 levels"}]}
{"smiles": "CN(C)CC(c1ccc(O)cc1)C1(O)CCCCC1", "note": "(centres unmarked) [desvenlafaxine]", "values": [{"measurement": "beta amyloid levels and Plaque Burden", "setting": "[1]", "result": "lower beta amyloid levels and Plaque Burden"}]}
{"smiles": "COc1cccc([C@H](O)C2CCN(CCc3ccc(F)cc3)CC2)c1OC", "note": "[M100,907, (R)-(+)-α-(2,3-Dimethoxyphenyl)-1-[2-(4-fluorophenyl)ethyl]-4-piperinemethanol]", "values": [{"measurement": "ISF levels of Aβ", "setting": "[2]; old (12 month old, fully formed amyloid plaques) APP/PS1 mice", "result": "robustly lowered levels of Aβ in a dose dependent manner"}, {"measurement": "ISF levels of Aβ", "setting": "[2]; young (3 month old, pre-plaque) APP/PS1 mice", "result": "robustly lowered levels of Aβ in a dose dependent manner"}, {"measurement": "Brain ISF Aβ levels", "setting": "[3]", "result": "Normalize Brain ISF Aβ Levels"}, {"measurement": "Aβ-lowering effect on ISF Aβ", "setting": "[4]", "result": "abolished"}]}
{"smiles": "CNCCC(Oc1ccc(C(F)(F)F)cc1)c1ccccc1", "note": "(centres unmarked) [fluoxetine]", "values": [{"measurement": "beta amyloid levels and Plaque Burden", "setting": "[1]", "result": "lower beta amyloid levels and Plaque Burden"}]}
{"smiles": "CC(C)COc1ccc(CNC(=O)N(Cc2ccc(F)cc2)C2CCN(C)CC2)cc1.O=C(O)C(O)C(O)C(=O)O", "note": "[pimavanserin, N-(1-methylpiperidin-4-yl)-N-(4-fluorophenylmethyl)-N′-(4-(2-methylpropyloxy)phenylmethyl)carbamide]", "values": [{"measurement": "ISF Aβ", "setting": "[2]; APP/PS1 mice, single bolus doses or continuous infusion, Example 2", "result": "robustly lowered ISF Aβ in APP/PS1 mice in a dose dependent manner"}, {"measurement": "Brain ISF Aβ levels", "setting": "[3]", "result": "Normalize Brain ISF Aβ Levels"}, {"measurement": "Aβ40 (guanidine fraction) in male mice, treated group (age 10 months) compared to start group (age 6 months)", "setting": "[5]; male mice, Example 6B", "result": "reduction in Aβ40"}, {"measurement": "levels of the guanidine fraction of Aβ40 and Aβ42 in hippocampus, compared to vehicle treated mice", "setting": "[5]; treatment from age 4.5 months for 4 months, osmotic minipump 3 mg/kg/day, Example 4", "result": "highly significant reduction"}, {"measurement": "levels of Aβ40 and Aβ42 (guanidine fraction), treated group at end compared to 'Start' group", "setting": "[5]; treatment from age 4.5 months for 4 months, Example 4", "result": "not a significant difference"}, {"measurement": "levels of the guanidine fraction of Aβ40 and Aβ42 in hippocampus, compared to vehicle treated mice", "setting": "[5]; treatment from age 6 months for 4 months, osmotic minipump, Example 6", "result": "highly significant reduction"}, {"measurement": "levels of Aβ40 and Aβ42 (guanidine fraction), treated group at end compared to 'Start' group", "setting": "[5]; treatment from age 6 months for 4 months, Example 6", "result": "not a significant difference"}, {"measurement": "amyloid plaque in hippocampus (histological staining), compared to vehicle treated mice", "setting": "[6]; treatment from age 4.5 months for 4 months, Example 5", "result": "highly significant decreases of amyloid plaque"}, {"measurement": "amyloid plaque in hippocampus (histological staining), compared to vehicle treated mice", "setting": "[6]; treatment from age 6 months for 4 months, Example 7", "result": "highly significant decreases of amyloid plaque"}, {"measurement": "Aβ in CSF", "setting": "[7]", "result": "significantly lowered Aβ"}]}
